Data reported in patent publication US20180030091A1, “COLLAGEN-BINDING SYNTHETIC PEPTIDOGLYCANS FOR USE IN VASCULAR INTERVENTION” (Purdue Research Foundation, priority 2010, published 2018).
“Also recorded” adds a separate entry of the source. Where no end group is shown, it is not given here.

Key:
[1] = tested on: Human platelets on Type I fibrillar collagen; experiment: Inhibition of platelet activation on fibrillar collagen after 24 hour rinse (PF4, NAP2); assay type: cell-based; details: 50 μM, incubated 15 min, rinsed for 24 hours
Description: Type I fibrillar collagen from Chronolog was diluted in isotonic glucose to a concentration of 50 μg/mL. 50 μL of collagen solution was added to each well of a high bind 96-well plate. The plate was incubated overnight at 4° C., and then rinsed 3× with 1×PBS. For microplate assays, peptidoglycan was diluted in 1×PBS at concentrations between 0.0001 μM to 100 μM and 50 μL solution was added to the collagen coated wells. DS, peptide, or 1×PBS were also added to collagen coated wells as controls. Treatments were incubated at 37° C. with shaking at 200 rpm for 15 min. Wells were then rinsed of unbound treatment by removing the treatment solution, adding PBS, and shaking the wells for 24 hours. During the 24 hours, PBS solution was changed 3 times.
Human whole blood was collected from healthy volunteers by venipuncture. The first 5 mL of blood was discarded and approximately 20 mL was then collected into citrated glass vacutainers (BD Bioscience). Blood was centrifuged in the glass tube for 20 min at 200 g at 25° C. The top layer of the centrifuged blood, the platelet rich plasma (PRP), was used for platelet experiments.
PRP (50 μL/well) was added to the microplate for 1 hour at room temperature without shaking. After 1 hour of incubation, 45 μL of PRP was removed from each well and added to a microcentrifuge tube containing […] ETP (107 mM EDTA, 12 mM theophylline, and 2.8 mM prostaglandin E1) to inhibit further platelet activation. These tubes were spun at 4° C. for 30 min at 2000 g to pellet the platelets. The supernatant (platelet serum) was collected for ELISA studies to test for the presence of platelet activation markers PF-4 and NAP2. Sandwich ELISAs were utilized in order to detect each protein. The components for both sandwich ELISAs were purchased from R&D Systems and the provided protocols were followed. Platelet serum was diluted 10,000 times in 1% BSA in 1×PBS for values to fall within a linear range.
Platelet activation was measured through release of platelet factor 4 (PF4) and β-thromboglobulin (NAP2). […] Since the high SILY/DS ratio is expected to provide higher binding affinity to the collagen surface due to multiple interactions, peptidoglycans with the higher SILY/DS ratios were prepared.
The number of peptides per DS molecule was further increased to 18 to create the peptidoglycan DS-SILY18, and the concentration of molecule needed to inhibit platelet activation was tested. […] Within solubility limits, the number of peptides can be increased to achieve maximal platelet inhibition as well as to reduce diffusion over time, where a higher level of peptidoglycans on the denuded vessel wall is sustained.

collagen [2] = target: T1, collagen (Bos taurus, UniProt P02453+P02465); experiment: Cryo-SEM measurement of fibril density; details: 10:1 molar ratio, cryo-SEM 10,000×
T1 construct: purchased Inamed, Freemont, Calif; (Nutragen)
Description: Collagen gels were formed in the presence of each additive at a 10:1 molar ratio, as described in EXAMPLE 15, directly on the SEM stage, processed, and imaged as described. Images at 10,000× were analyzed for fibril density calculations. Images were converted to 8-bit black and white, and threshold values for each image were determined using ImageJ software (NIH). The threshold was defined as the value where all visible fibrils are white, and all void space is black. The ratio of white to black area was calculated using MatLab software. All measurements were taken in triplicate and thresholds were determined by an observer blinded to the treatment.

collagen [3] = experiment: SILY binding to collagen (Biacore surface plasmon resonance)
Description: Biacore studies were performed on a Biacore 2000 using a CM-3 chip (Biacore, Inc., Piscataway, N.J.). The CM-3 chip is coated with covalently attached carboxymethylated dextran, which allows for attachment of the substrate collagen via free amine groups. Flow cells (FCs) 1 and 2 were used, with FC-1 as the reference cell and FC-2 as the collagen immobilized cell. Each FC was activated with EDC-NHS, and 1500 RU of collagen was immobilized on FC-2 by flowing 1 mg/mL collagen in sodium acetate, pH 4, buffer at 5 μL/min for 10 min. Unreacted […] sites were capped with ethanolamine; the control FC-1 was activated and capped with ethanolamin.
To determine peptide binding affinity, SILY was dissolved in 1×HBS-EP buffer (Biacore) at varying concentrations from 100 μM to 1.5 μm in 2-fold dilutions. […] The first 10 injections were buffer injections, which help to prime the system, followed by randomized sample injections, run in triplicate. Analysis was performed using BIAevaluation software (Biacore).

[4] = tested on: Human aortic smooth muscle cells; experiment: Collagen remodeling: hydroxyproline content in medium of cell-seeded collagen gels; assay type: cell-based; details: up to 30 days
Description: Following a method by Grassl, et al. (Grassl, et al., Journal of Biomedical Materials Research 2002, 60, (4), 607-612), which is herein incorporated in its entirety, collagen gels with or without synthetic PG mimics were formed as described in EXAMPLE 15. Human aortic smooth muscle cells (Cascade Biologics, Portland, Oreg.) were seeded within collagen gels by adding 4×10^6 cells/mL to the neutralized collagen solution prior to incubation. The cell-collagen solutions were pipetted into an 8-well Lab-Tek chamber slide and incubated in a humidified 37° C. and 5% CO2 incubator. After gelation, the cell-collagen gels will be covered with 1 mL Medium 231 as prescribed by Cascade. Every 3-4 days, the medium was removed from the samples and the hydroxyproline content measured by a standard hydroxyproline assay (Reddy, 1996).
To measure degraded collagen in the supernatant medium, the sample was lyophilized, the sample hydrolyzed in 2 M NaOH at 120° C. for 20 min. After cooling, free hydroxyproline was oxidized by adding chloramine-T (Sigma) and reacting for 25 min at room temperature. Ehrlich's aldehyde reagent (Sigma) was added and allowed to react for 20 min at 65° C. and followed by reading the absorbance at 550 nm on an M-5 spectrophotometer (Molecular Devices). […] Cultures were incubated for up to 30 days and three samples of each treatment measured. […]

Fibrillar collagen = experiment: Binding affinity of biotin labeled peptidoglycan to fibrillar collagen; details: biotin labeled peptidoglycans, fitted saturation binding curves
Description: Fibrillar collagen (Chronolog, Havertown, Pa.) was coated onto the surface of a 96-well high bind plate (Costar) at a concentration of 50 μg/mL diluted in isotonic glucose. Plates were covered and incubated overnight at 4° C. Unbound collagen was removed by rinsing 3 times with 1×PBS pH 7.4. Plates were then blocked with 1% BSA for 3 hours at room temperature. Peptidoglycan was dissolved at varying concentrations in 1×PBS pH 7.4 containing 1% BSA and were immediately added to the collagen surfaces, and allowed to incubate for 15 min at room temperature. Plates were then rinsed 3 times with 1×PBS pH 7.4 containing 1% BSA. Streptavidin-HRP solution (R&D Systems, Minneapolis, Minn.) was then added to the plates and incubated for 20 minutes at room temperature. […] The color evolving reaction was stopped with 50 μL 2N sulfuric acid and absorbance was measured at 450 nm using an M5 UV Vis Spectrophotometer (Molecular Devices). Plate imperfections (540 nm) were subtracted from absorbance values.
The binding affinities of biotin labeled peptidoglycans, labeled using protocols known in the art, DS-SILY4 and DS-SILY18 were calculated by fitting the saturation binding curves and calculating the inflection point. […]

[5] = tested on: Human coronary artery smooth muscle cells (HCA SMC); experiment: Gel compaction by smooth muscle cells in collagen gels; assay type: cell-based
Description: Human coronary artery smooth muscle cells (HCA SMC) (Cascade Biologics) were cultured in growth medium (Medium 231 supplemented with smooth muscle growth factor). Cells from passage 3 were used for all experiments. Differentiation medium (Medium 231 supplemented with 1% FBS and 1×pen/strep) was used for all experiments unless otherwise noted.
Collagen gels were prepared with each additive as described with the exception that the 1×PBS sample addition was omitted to accommodate the addition of cells in media. After incubating on ice for 30 min, HCA SMCs in differentiation medium were added to the gel solutions to a final concentration of 1×10^6 cells/mL. Gels were formed in quadruplicate in 48-well non-tissue culture treated plates (Costar) for 6 hrs before adding 500 μL/well differentiation medium. Gels were freed from the well edges after 24 hrs. Medium was changed every 2-3 days and images for compaction were taken at the same time points using a Gel Doc System (Bio-Rad). The cross-sectional area of circular gels correlating to degree of compaction was determined using ImageJ software (NIH). Gels containing no cells were used as a negative control and cells in collagen gels absent additive were used as a positive control. By day 10 all gels had compacted to approximately 10% of the original gel area, and differences between additives were small.

collagen [6] = experiment: Cryo-SEM measurement of fibril diameters; details: cryo-SEM images at 20,000×
Description: Using a modification of EXAMPLE 18 fibril diameters were measured by 8cryo-SEM. Fibril diameters from cryo-SEM images taken at 20,000× were measured using ImageJ software (NIH). At least 45 fibrils were measured for each treatment. Results are presented as Avg.±S.E. Statistical analysis was performed using DesignExpert software (StatEase) with α=0.05.

collagen [7] = target: T1, collagen; experiment: Collagen fibrillogenesis by turbidity at 313 nm; assay type: biochemical; details: 1:1 collagen:additive molar ratio
Description: Collagen fibrillogenesis was monitored by measuring turbidity related absorbance at 313 nm providing information on rate of fibrillogenesis and fibril diameter. Gel solutions were prepared as described in EXAMPLE 15 (4 mg/mL collagen, 10:1 collagen:treatment, unless otherwise indicated) and 50 uL/well were added at 4° C. to a 384-well plate. The plate was kept at 4° C. for 4 hours before initiating fibril formation. A SpectraMax M5 at 37° C. was used to measure absorbance at 313 nm at 30 s intervals for 6 hours.
A fibrillogenesis assay as described for DS-SILY, EXAMPLE 17, performed with the conjugate DS-Dc13.

T1 sequence (P02453 162-1217 limits assumed): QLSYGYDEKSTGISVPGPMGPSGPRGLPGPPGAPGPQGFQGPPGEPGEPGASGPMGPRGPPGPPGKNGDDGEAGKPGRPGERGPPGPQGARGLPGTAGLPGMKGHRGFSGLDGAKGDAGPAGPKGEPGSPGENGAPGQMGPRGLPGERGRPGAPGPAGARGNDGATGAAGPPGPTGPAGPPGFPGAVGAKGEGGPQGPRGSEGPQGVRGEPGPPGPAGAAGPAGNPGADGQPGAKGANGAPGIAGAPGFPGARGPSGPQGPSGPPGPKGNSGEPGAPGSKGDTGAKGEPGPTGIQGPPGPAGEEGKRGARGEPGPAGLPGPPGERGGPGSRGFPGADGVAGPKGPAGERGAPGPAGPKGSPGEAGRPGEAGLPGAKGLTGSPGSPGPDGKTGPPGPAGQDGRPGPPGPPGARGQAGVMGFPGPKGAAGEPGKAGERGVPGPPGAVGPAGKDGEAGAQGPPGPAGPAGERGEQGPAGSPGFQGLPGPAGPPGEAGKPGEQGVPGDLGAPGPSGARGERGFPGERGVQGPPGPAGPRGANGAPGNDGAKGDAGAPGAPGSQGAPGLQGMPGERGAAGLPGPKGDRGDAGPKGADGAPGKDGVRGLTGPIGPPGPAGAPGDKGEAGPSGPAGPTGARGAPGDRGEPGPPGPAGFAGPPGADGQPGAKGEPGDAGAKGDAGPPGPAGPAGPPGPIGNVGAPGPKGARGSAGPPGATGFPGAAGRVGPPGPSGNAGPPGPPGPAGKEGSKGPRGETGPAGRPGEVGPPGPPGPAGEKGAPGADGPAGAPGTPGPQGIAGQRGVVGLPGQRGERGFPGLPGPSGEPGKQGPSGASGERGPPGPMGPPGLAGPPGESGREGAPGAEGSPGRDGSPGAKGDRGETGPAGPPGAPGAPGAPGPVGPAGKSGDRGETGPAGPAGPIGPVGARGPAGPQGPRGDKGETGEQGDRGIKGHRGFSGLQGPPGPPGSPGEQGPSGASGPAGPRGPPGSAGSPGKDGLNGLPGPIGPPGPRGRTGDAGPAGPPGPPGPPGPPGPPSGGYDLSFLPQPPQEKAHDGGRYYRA
T1 sequence (P02465 80-1117 limits assumed): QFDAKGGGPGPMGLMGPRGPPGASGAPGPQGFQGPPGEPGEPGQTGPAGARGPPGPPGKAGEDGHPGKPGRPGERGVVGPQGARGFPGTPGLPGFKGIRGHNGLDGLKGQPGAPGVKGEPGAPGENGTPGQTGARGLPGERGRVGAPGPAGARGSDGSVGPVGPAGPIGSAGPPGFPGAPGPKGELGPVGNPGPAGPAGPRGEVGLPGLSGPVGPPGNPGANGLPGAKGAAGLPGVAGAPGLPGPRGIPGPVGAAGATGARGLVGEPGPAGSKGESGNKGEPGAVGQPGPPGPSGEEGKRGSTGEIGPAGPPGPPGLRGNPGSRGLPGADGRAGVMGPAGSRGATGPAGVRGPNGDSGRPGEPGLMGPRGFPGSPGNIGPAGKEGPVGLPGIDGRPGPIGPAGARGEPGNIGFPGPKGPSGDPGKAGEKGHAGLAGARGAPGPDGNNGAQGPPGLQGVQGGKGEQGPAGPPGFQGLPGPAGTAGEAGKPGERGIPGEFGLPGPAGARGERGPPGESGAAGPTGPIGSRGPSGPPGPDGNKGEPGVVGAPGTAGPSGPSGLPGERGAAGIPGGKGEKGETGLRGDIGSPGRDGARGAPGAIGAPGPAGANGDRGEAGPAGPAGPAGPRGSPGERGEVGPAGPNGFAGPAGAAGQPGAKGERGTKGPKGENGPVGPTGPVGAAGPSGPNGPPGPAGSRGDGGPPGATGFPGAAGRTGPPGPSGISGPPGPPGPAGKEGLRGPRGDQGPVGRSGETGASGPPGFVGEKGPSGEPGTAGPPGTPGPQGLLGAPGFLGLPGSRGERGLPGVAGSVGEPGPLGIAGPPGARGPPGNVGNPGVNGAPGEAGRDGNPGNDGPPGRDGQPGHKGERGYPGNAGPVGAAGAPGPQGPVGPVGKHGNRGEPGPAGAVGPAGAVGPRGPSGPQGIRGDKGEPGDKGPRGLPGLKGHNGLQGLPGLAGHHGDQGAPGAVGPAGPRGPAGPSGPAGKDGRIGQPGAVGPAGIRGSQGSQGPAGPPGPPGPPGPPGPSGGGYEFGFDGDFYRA

RRANAALKAGELYKSILYGC was tested, and the “inhibition of platelet activation (release of PF4 and NAP2)” value [1] was “little to no effect on inhibiting platelet activation”, the “fibril density (ratio of fibril containing area to void space)” value (collagen [2]) was “significantly greater fibril density” and the “binding to collagen (association/disassociation curves)” value (collagen [3]; 100 μM to 1.5 μm in 2-fold dilutions) was “binds reversibly with collagen”. For the same substance, the Kd (collagen [3]; calculated from the on-off binding kinetics, collagen on CM-3 chip) was 1200 nM and the “collagen degradation by hydroxyproline content in cell medium” value [4] was “greater collagen degradation compared to collagen alone”.
For “DS-SILY4: dermatan sulfate with 4 SILY peptides via BMPH; tested biotin labeled (RRANAALKAGELYKSILYGC-NH2; also: Cys thiol coupled via BMPH crosslinker to oxidized dermatan sulfate, 4 peptides per glycan, biotin label in tested form, position not given here)”, the Kd (Fibrillar collagen) was 118 nM.
For Decorin, the “gel compaction, day 7” value ([5]; Day 7) was “significant against all samples”, the “gel compaction, days 3 and 5” value ([5]; Days 3 and 5) was “significant relative to collagen and DS” and the fibril diameter (collagen [6]) was “significantly decrease fibril diameter over collagen or collagen+DS; also recorded: significantly decrease fibril diameter over collagen or collagen+dermatan sulfate”.
In the case of SYIRIADTNITGC [Dc13], the “fibrillogenesis (absorbance at 313 nm), free peptide” value (collagen [7]) is reported as “little effect on fibrillogenesis compared to collagen alone” and the “collagen degradation by hydroxyproline content in cell medium” value [4] is reported as “greater collagen degradation compared to collagen alone”.
